The test has as its target T1, vesicular monoamine transporter 2 (VMAT2) (Homo sapiens, UniProt Q05940).
T1 construct: gene SLC18A2; human VMAT2 stably expressed in HEK293 cells (HEK-hVMAT2), pcDNA3.1
The test is described as follows: inhibition of vesicular 3H-dopamine uptake in HEK-hVMAT2 cell fractions. The format is biochemical.

The structures appear in SMILES notation.

T1 sequence (Q05940 whole entry): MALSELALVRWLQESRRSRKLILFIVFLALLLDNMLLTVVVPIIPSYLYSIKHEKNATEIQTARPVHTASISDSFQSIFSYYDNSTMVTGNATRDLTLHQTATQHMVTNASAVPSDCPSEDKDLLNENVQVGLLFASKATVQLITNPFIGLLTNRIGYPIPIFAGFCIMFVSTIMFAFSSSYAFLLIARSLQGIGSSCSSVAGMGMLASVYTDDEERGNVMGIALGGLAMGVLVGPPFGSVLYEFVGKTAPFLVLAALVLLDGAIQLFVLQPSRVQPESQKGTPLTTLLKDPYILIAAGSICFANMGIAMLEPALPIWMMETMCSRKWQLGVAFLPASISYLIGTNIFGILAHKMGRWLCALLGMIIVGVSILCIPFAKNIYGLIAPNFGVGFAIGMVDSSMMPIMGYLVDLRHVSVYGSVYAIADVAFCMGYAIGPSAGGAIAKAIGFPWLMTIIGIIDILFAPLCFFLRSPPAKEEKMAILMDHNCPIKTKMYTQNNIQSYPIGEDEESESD

Regarding `O=S(=O)(O)C(F)(F)C(F)(F)C(F)(F)C(F)(F)C(F)(F)C(F)(F)C(F)(F)C(F)(F)F` [PFOS], half-maximal inhibition (IC50) was put at 4.56 µM. In other words, the single-digit micromolar range.

Values taken from publication PMC5635798, “Alteration to Dopaminergic Synapses Following Exposure to Perfluorooctane Sulfonate (PFOS), in Vitro and in Vivo” (Medical Sciences, 2016).
